Assay results as given in patent US20030055046A1, “Novel pyrido cyclohexenyl phenyl carboxamides tocolytic oxytocin receptor antagonists” (Wyeth, priority 2001, published 2003).
Structures can show the parent of a compound that is named as a salt.

Target: T1, human vasopressin V2 receptor subtype (Homo sapiens, UniProt P30518)
T1 construct: host or cells: CHO cells, stably transfected (pZeoSV vector)
Assay: Vasopressin binding in CHO cell membranes expressing human vasopressin V2 subtype receptors
Details: [3H]arginine vasopressin; for IC50: value in parentheses
From the text: Vasopressin Binding in Chinese Hamster Ovary Cell Membranes Expressing Human Vasopressin V2 Subtype Receptors
Chinese Hamster Ovary (CHO) cells stably transfected with the human V2 subtype receptors were obtained from M. Thibonnier, Case Western Reserve University School of Medicine, Cleveland, Ohio.
A. Passaging and Amplification of Cells:
CHO cells transfected with the human vasopressin V2 subtype receptors obtained from M. Thibonnier (pZeoSV vector) are allowed to grow to confluency (approx. >90%) in T-150 flasks under sterile conditions, in a cell culture medium consisting of F-12 Nutrient Mixture (HAM) with L-glutamine (Gibco Cat.# 11765-054) containing 15 mM HEPES (Gibco Cat.# 15630-080), 1% antibiotic/antimycotic (add 5 mL 100×, Gibco Cat.# 15240-062 per 500 mL F-12), 250 μg/mL Zeocin (add 1.25 mL of 100 mg/mL Invitrogen R-250-01 per 500 mL F-12) and 10% Fetal Bovine Serum (Qualified, heat inactivated, Gibco Cat.# 16140-063). The medium is removed by aspiration and the cells washed with 10 mL of Hank's Balanced Salt solution (Gibco Cat.# 14175-095). The salt solution is removed by aspiration and the cells trypsinized with 5 mL of trypsin-EDTA (0.05% trypsin, 0.53 mM EDTA-4Na, Gibco Cat.# 25300-070) for 1 min. The trypsin is removed by aspiration and the cells dislodged by tapping. Cell Culture medium (e.g. 30 mL for 1:30 split) is immediately added and mixed well to inactivate trypsin. 1 mL of detached cells is added to new culture flasks containing fresh Cell Culture medium (e.g. into 25 mL per T-150 flask), and mixed gently. The cells are incubated at 37° C. in 5% CO2. The medium is changed at 3 to 4 day interval (or as appropriate). The cells grow to confluency (approx. >75%-95%) within 7-8 days. All steps are done under sterile conditions.
The cells are washed twice gently with Hank's Balanced Salt solution (e.g. use 10 mL per T-150 flask). The excess solution is removed and the cells bathed for 15-30 min. in an enzyme-free Cell Dissociation Buffer (e.g. use 8 mL Hank's Based, Gibco Cat.# 13150-016 per T-150 flask) until cells are loosened. The contents are transferred to centrifuge tubes (50 mL) kept in an ice bath. All subsequent steps are done at 4° C. The tubes are centrifuged at 300×g for 15 min (1380 rpm on SORVAL, Model RT6000D, using the rotor for 50 mL tubes). The supernatant is discarded and the cells suspended in homogeneizing buffer(10 mM Tris-HCl containing 0.25 M sucrose and 1 mM EDTA, pH 7.4) ensuring that the volume of the buffer is about ten times the volume of the cell pellet. The cells are pooled into a centrifuge tube (50 mL) and homogenized with Polytron at setting 6 for 10 sec. The homogenate is transferred into a Potter-Elvjehm homogeneizer and homogenized with 3 strokes. The homogenate is centrifuged at 1500×g for 60 min at 4° C. (3100 rpm using SORVAL, model RT6000D, using the rotor for 50 mL tubes). The pellet is discarded. The supernatant is centrifuged at 100,000×g for 60 min. at 4° C. (Beckman L8-80M ultracentrifuge; spin at 37,500 rpm with rotor type 70 Ti for 50 mL tubes; 38,000 rpm with type 80Ti for 15 mL tubes; or 35,800 rpm with rotor type 45Ti). The supernatant is discarded and the pellet suspended in 3 to 4 mL of Tris buffer (50 mM TRIS-HCl, pH 7.4). The protein content is estimated by the Bradford or Lowry method. The volume of the membrane suspension is adjusted with the membrane buffer (50 mM Tris-HCl containing 0.1% BSA and 0.1 mM PMSF) to give 3.0 mg/mL (or as appropriate) of protein. The membranes are aliquoted and stored at −70° C.
C. Radioligand Binding Assay:
In wells of a 96-well format microtiter plate, is added 90, 110 or 130 μL (to make up a final volume of 200 μL) of assay buffer containing 50 mM of Tris-HCl (pH 7.4), […], 1 mg % aprotinin, 1 mg % leupeptin, 2 mg % 1,10-phenanthroline, 10 mg % trypsin inhibitor, and 0.1 mM PMSF. The inhibitors are added on the day of the experiment. […]

T1 sequence (P30518 whole entry): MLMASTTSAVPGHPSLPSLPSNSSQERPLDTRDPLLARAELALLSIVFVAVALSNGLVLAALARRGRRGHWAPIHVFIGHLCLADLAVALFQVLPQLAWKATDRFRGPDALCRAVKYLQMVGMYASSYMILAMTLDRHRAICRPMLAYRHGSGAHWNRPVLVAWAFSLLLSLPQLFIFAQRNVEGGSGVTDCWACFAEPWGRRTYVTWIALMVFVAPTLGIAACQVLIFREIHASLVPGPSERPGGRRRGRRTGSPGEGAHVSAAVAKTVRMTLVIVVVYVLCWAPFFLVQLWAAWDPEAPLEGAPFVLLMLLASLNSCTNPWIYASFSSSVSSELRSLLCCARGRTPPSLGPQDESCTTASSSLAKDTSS

For `Cc1cc(C(=O)N2Cc3ccc(C(=O)N(C)Cc4cccnc4)n3Cc3ccccc32)ccc1C1=CCCCC1` [Example 11, 10-[4-(1-Cyclohex-1-en-1-yl)-3-methylbenzoyl]-N-methyl-N-(3-pyridinylmethyl)-10,11-dihydro-5H-pyrrolo[2,1-c][1,4]benzodiazepine-3-carboxamide], the “V2 % inhibition @ 100 nM” value was 17%.

For `CC1=C(c2ccc(C(=O)N3Cc4ccc(C(=O)N(C)Cc5cccnc5)n4Cc4ccccc43)cc2C)CCC[C@H]1O` [Example 3, 10-[4-((3R)-3-Hydroxy-2-methyl-cyclohex-1-en-1-yl)-3-methyl-benzoyl]-10,11-dihydro-5H-pyrrolo[2,1-c][1,4]benzodiazepine-3-carboxylic acid methyl-pyridin-3-yl methyl-amide], the “V2 % inhibition @ 100 nM” value was 7%.

In the case of `Cc1cc(C(=O)N2Cc3ccc(C(=O)N(C)CCc4ccncc4)n3Cc3ccccc32)ccc1C1=CCCCC1` [Example 13, 10-[4-(1-Cyclohex-1-en-1-yl)-3-methylbenzoyl]-N-methyl-N-[2-(4-pyridinyl)ethyl]-10,11-dihydro-5H-pyrrolo[2,1-c][1,4]benzodiazepine-3-carboxamide], the “V2 % inhibition @ 100 nM” value is reported as 12%.

In the case of `Cc1cc(C(=O)N2Cc3ccc(C(=O)NCc4ccccn4)n3Cc3ccccc32)ccc1C1=CCCCC1` [Example 5, 10-[4-(1-Cyclohex-1-en-1-yl)-3-methylbenzoyl]-N-(2-pyridinylmethyl)-10,11-dihydro-5H-pyrrolo[2,1-c][1,4]benzodiazepine-3-carboxamide], the “V2 % inhibition @ 100 nM” value is reported as 12%.

With `Cc1cc(C(=O)N2Cc3ccc(C(=O)N4CCN(c5ccncc5)CC4)n3Cc3ccccc32)ccc1C1=CCCCC1` [Example 12, {10-[4-(1-Cyclohex-1-en-1-yl)-3-methylbenzoyl]-10,11-dihydro-5H-pyrrolo[2,1--c][1,4]benzodiazepin-3-yl}[4-(4-pyridinyl)-1-piperazinyl]methanone] the “V2 % inhibition @ 100 nM” value was 21%.

`COc1cc(C2=CCCCC2)c(Cl)cc1C(=O)N1Cc2ccc(C(=O)N(C)Cc3cccnc3)n2Cc2ccccc21` [Example 1, 10-(5-Chloro-4-cyclohex-1-en-1-yl-2-me3thoxybenzoyl)-N-methyl-N-(pyridin-3-ylmethyl)-10,11-dihydro-5H-pyrrolo [2,1-c][1,4]benzodiazepine-3-carboxamide] was tested, and the IC50 was 1190 nM.

For `Cc1cc(C(=O)N2Cc3ccc(C(=O)N4CCN(c5ccccn5)CC4)n3Cc3ccccc32)ccc1C1=CCCCC1` [Example 9, {10-[4-(1-Cyclohex-1-en-1-yl)-3-methylbenzoyl]-10,11-dihydro-5H-pyrrolo[2,1-c][1,4]benzodiazepin-3-yl}[4-(2-pyridinyl)-1-piperazinyl]methanone], the “V2 % inhibition @ 100 nM” value was 21%.

`COc1cc(C2=CCCCC2)c(Cl)cc1C(=O)N1Cc2ccc(C(=O)N(C)Cc3cccnc3)n2Cc2ccccc21` [Example 2, 10-(5-Chloro-4-cyclohex-1-en-1-yl-2-methoxybenzoyl)-N-methyl-N-(pyridin-3-ylmethyl)-10,11-dihydro-5H-pyrrolo[2,1-c][1,4]benzodiazepine-3-carboxamide L-(+)-tartaric acid salt hemihydrate] was tested, and the IC50 was 1420 nM.

`Cc1cc(C(=O)N2Cc3ccc(C(=O)NCc4ccncc4)n3Cc3ccccc32)ccc1C1=CCCCC1` [Example 10, 10-[4-(1-Cyclohex-1-en-1-yl)-3-methylbenzoyl]-N-(4-pyridinylmethyl)-10,11-dihydro-5H-pyrrolo[2,1-c][1,4]benzodiazepine-3-carboxamide] was tested, and the “V2 % inhibition @ 100 nM” value was 15%.

With `CC1=C(c2ccc(C(=O)N3Cc4ccc(C(=O)N(C)Cc5cccnc5)n4Cc4ccccc43)cc2C)CCC[C@H]1O.O=C(O)C(O)C(O)C(=O)O` [Example 4, 10-[4-((3R)-3-Hydroxy-2-methyl-cyclohex-1-en-1-yl)-3-methyl-benzoyl]-10,11-dihydro-5H-pyrrolo[2,1-c][1,4]benzodiazepine-3-carboxylic acid methyl-pyridin-3-yl methyl-amide L-(+)-tartaric acid salt] the “V2 % inhibition @ 100 nM” value was 20%.

For `Cc1cc(C(=O)N2Cc3ccc(C(=O)NCc4cccnc4)n3Cc3ccccc32)ccc1C1=CCCCC1` [Example 6, 10-[4-(1-Cyclohex-1-en-1-yl)-3-methylbenzoyl]-N-(3-pyridinylmethyl)-10,11-dihydro-5H-pyrrolo[2,1-c][1 ,4]benzodiazepine-3-carboxamide], the “V2 % inhibition @ 100 nM” value was 3%.

In the case of `Cc1cc(C(=O)N2Cc3ccc(C(=O)NCCc4ccccn4)n3Cc3ccccc32)ccc1C1=CCCCC1` [Example 7, 10-[4-(1-Cyclohex-1-en-1-yl)-3-methylbenzoyl]-N-[2-(2-pyridinyl)ethyl]-10,11-pyrrolo[2,1-c][1,4]benzodiazepine-3-carboxamide], the “V2 % inhibition @ 100 nM” value is reported as 6%.

`Cc1cc(C(=O)N2Cc3ccc(C(=O)N(C)CCc4ccccn4)n3Cc3ccccc32)ccc1C1=CCCCC1` [Example 8, 10-[4-(1-Cyclohex-1-en-1-yl)-3-methylbenzoyl]-N-methyl-N-[2-(2-pyridinyl)ethyl]-10,11-dihydro-5H-pyrrolo[2,1-c][1 ,4]benzodiazepine-3-carboxamide] was tested, and the “V2 % inhibition @ 100 nM” value was 16%.
